Laboratory results from publication PMC6491728, “Application of in vitro Drug Metabolism Studies in Chemical Structure Optimization for the Treatment of Fibrodysplasia Ossificans Progressiva (FOP)” (Frontiers in Pharmacology, 2019).
Values after ≈ are worked out from the molar mass of the structure shown. Like-named read-outs stand apart in the source and are kept apart here.

Assays:
[1] = Metabolite formation in human and mouse liver subcellular fractions (LC/UV/MS, trapping); assay type: in vitro ADME; conditions: for Species in which the metabolite of Compound 3 was observed / Species in which the metabolite of Compound 2 was observed: H human, M mouse; for cyanide (KCN) adduct: KCN trapping; for metabolism in cytosol incubation (AO-mediated): liver cytosol; for GSH adduct: microsomal incubation with NADPH and GSH, mouse and human
[2] = Metabolite profiling of LDN-193189 in liver microsomal/cytosolic fractions of six species (LC/UV/MS, GSH and KCN trapping); conditions: for Species in which the metabolite of LDN-193189 was observed: LDN-193189 10 μM, 60 min, M mouse, R rat, Rb rabbit, D dog, Mo monkey, H human; for metabolite found in rat microsomal incubation with LDN-193189: rat liver microsomes
Protocol: Total incubation volume per sample was 1 mL. The metabolic reactions were initiated by the addition of cofactors, NADPH-regenerating system and UDPGA, after a pre-incubation at 37°C for 5 min. The incubation mixtures were placed in a shaking water bath at 37°C for 60 min. At the end of the reaction, three volumes of ACN were added, followed by vortexing and centrifugation to remove proteins. The supernatants were transferred to clean tubes and dried completely under a stream of nitrogen at ambient temperature. The dried residues were reconstituted with 500 μL of 25% MeOH in water and transferred into HPLC vials for LC/UV/MS analysis.
Chromatography was accomplished on a Phenomenex Luna, C18 (2) column, 3.0 × 250 mm, 5 μm (Torrance, CA, United States). The column was kept at ambient temperature during sample analysis. The mobile phases were HPLC grade water (solvent A) and ACN (solvent B), both of which contained 0.1% trifluoroacetic acid (TFA). […] The first 4 min of the HPLC flow was diverted to waste prior to evaluation of metabolites.
To facilitate distinction of carbon or heteroatom oxidations, hydrogen/deuterium (H/D) exchange experiments were performed by replacing the aqueous mobile phase (H2O) with D2O while keeping the rest of assay conditions unchanged.
UV absorption spectra from 200 to 400 nm were recorded using a diode array detector. The Thermo Finnigan LTQ XL mass spectrometer was equipped with an electrospray ionization (ESI) interface and operated in positive ionization mode for metabolite profiling and identification. Mass spectra were acquired in full scan (MS) (m/z 200–1000) and data dependent scan (MS^2, MS^3, and MS^4) modes. The ESI spray voltage was +5kV with capillary temperature of 300°C. Sheath gas and auxiliary gas were 80 and 20 arbitrary units, respectively. Activation Q was 0.25 and Activation time 30 ms. The collision energy used to obtain fragments was set at 40 eV.

ALK2 = biological target: T1, ALK2 (Mus musculus, UniProt P37172); experiment: BMP6-stimulated SMAD1/5/8 phosphorylation in C2C12 cells (HTRF); assay type: cell-based; conditions: for IC50: C2C12 cells, SMAD1/5/8 phosphorylation, HTRF, read-out: BMP6 (mediated by ALK2) IC50
T1 construct: determined in C2C12 cell lines (ATCC; Manassas, VA, United States); host or cells: C2C12
T1 sequence (P37172 21-509): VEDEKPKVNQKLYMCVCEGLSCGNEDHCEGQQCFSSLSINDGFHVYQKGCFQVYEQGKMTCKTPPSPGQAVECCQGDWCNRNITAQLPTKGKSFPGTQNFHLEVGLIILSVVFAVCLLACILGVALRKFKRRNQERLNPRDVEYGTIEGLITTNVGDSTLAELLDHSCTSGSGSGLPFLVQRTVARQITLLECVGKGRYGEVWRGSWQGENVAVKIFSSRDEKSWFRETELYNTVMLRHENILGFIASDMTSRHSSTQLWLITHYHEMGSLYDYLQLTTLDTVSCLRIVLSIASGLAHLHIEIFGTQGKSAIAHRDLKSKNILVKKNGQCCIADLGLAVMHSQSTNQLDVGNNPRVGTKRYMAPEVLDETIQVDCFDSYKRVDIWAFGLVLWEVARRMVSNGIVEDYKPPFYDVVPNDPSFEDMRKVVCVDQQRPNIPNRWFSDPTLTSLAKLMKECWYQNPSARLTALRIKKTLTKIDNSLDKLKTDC
Protocol: (§1) The in vitro activity toward to ALK2 and the selectivity over ALK3 and ALK5 were determined in C2C12 cell lines (ATCC; Manassas, VA, United States) through measuring the phosphorylation level of SMAD1/5/8 (for ALK2 and ALK3) or SMAD2/3 (for ALK5) under the stimulation of BMP6 (mediated by ALK2), BMP4 (mediated by ALK3) and TGFβ (mediated by ALK5), respectively, by using homogeneous time resolved fluorescence (HTRF; a manuscript in preparation).

ALK3 = biological target: T2, ALK3 (Mus musculus, UniProt P36895); experiment: BMP4-stimulated SMAD1/5/8 phosphorylation in C2C12 cells (HTRF); assay type: cell-based; conditions: read-out: BMP4 (mediated by ALK3) IC50
T2 construct: determined in C2C12 cell lines (ATCC; Manassas, VA, United States); host or cells: C2C12
T2 sequence (P36895 24-532): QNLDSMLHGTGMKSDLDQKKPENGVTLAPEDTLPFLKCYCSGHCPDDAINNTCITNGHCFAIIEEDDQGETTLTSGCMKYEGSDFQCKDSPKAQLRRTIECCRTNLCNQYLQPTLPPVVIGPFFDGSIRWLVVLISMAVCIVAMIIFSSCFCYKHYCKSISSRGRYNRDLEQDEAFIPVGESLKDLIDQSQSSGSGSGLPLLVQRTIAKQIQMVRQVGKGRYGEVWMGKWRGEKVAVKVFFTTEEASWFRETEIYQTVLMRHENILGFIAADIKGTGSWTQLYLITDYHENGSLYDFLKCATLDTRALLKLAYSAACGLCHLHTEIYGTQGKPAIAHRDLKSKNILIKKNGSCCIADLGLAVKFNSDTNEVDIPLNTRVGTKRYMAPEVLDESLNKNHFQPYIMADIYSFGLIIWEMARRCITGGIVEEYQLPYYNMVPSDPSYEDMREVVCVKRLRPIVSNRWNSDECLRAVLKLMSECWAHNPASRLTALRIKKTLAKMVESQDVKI
Protocol: as §1

ALK5 = biological target: T3, ALK5 (Mus musculus, UniProt Q64729); experiment: TGFβ-stimulated SMAD2/3 phosphorylation in C2C12 cells (HTRF); assay type: cell-based
T3 construct: determined in C2C12 cell lines (ATCC; Manassas, VA, United States); host or cells: C2C12
T3 sequence (Q64729 30-503): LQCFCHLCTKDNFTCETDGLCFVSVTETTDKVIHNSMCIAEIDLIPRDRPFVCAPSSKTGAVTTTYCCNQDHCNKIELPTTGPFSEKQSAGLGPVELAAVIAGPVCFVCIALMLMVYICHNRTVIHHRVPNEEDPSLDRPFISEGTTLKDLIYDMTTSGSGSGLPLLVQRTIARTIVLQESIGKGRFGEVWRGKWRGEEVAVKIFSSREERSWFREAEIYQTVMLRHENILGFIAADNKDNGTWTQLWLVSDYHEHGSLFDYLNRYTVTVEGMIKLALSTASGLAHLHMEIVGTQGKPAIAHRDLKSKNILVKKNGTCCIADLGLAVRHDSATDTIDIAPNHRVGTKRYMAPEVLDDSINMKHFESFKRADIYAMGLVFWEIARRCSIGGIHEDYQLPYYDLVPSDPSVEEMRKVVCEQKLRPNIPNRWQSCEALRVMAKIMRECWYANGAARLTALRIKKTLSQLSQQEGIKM
Protocol: as §1

[3] = In vitro metabolic stability screening assay with rat liver microsomes; assay type: in vitro ADME; conditions: rat liver microsomes 0.5 mg/mL, 1 μM compound, single time point 15 min, 37°C; read-out: Microsomal Stability t1/2
Protocol: In vitro metabolic stability screening assay was conducted with rat liver microsomes in a 96-well plate, where 1 μM of compound was incubated with 0.5 mg/mL of rat liver microsomal protein. A single time point was collected at 15 min after an incubation at 37°C. […] When the half-life was greater than 30 min, results were presented as >30 min.

[4] = Stirring double-sink PAMPA permeability; assay type: in vitro ADME; conditions: passive diffusion
Protocol: Parallel Artificial Membrane Permeability Assay (PAMPA) was employed to determine the passive diffusion permeability of LDN-193189 and analogs. Stirring double-sink PAMPA method (pION Inc.) was employed to determine the permeability of compounds. The method was performed as described previously ([Sun et al., 2017]).

[5] = Kinetic solubility (μSOL Evolution, pH 7.4 phosphate buffer); assay type: physicochemical; conditions: pH 7.4, aqueous buffer, kinetic from dmso stock
Protocol: Kinetic solubility was measured using the μSOL Evolution system from pION Inc. (Billerica, MA, United States). Saturation shake-flask solubility method was adapted as previously described ([Avdeef and Berger, 2001]). Briefly, 10 mM DMSO stock was diluted to a final drug concentration of 150 μM in the aqueous solution (pH 7.4, 100 mM phosphate buffer) in duplicates. The solution was kept at room temperature for 6 h for equilibration. After equilibration, precipitates were removed using Tecan Te-Vac vacuum-filter and the compound concentration was measured by UV absorbance (λ: 250–498 nm). Data was compared to a fully solubilized reference solution of the test article at 17 μM in spectroscopically pure n-propanol. The kinetic solubility (μg/mL) was calculated using the μSOL Evolution software.

[6] = Metabolite profiling in human liver microsomes and cytosol (LC/UV/MS, inhibitors, trapping)
[7] = set-up: method as in Cuny et al., 2008; conditions: mice, intraperitoneal administration; ref Cuny et al., 2008; cited from earlier work
mouse FOP disease model = system: mouse FOP disease model; set-up: method as in Yu et al., 2008a; conditions: ref Yu et al., 2008a; cited from earlier work
[8] = C2C12 cells, SMAD2/3 phosphorylation, HTRF, read-out: TGFβ (mediated by ALK5) IC50

## Cc1cc(-c2cnn3cc(-c4ccc(OCC(=O)O)nc4)cnc23)c2ccccc2n1 [Compound M411]
[1]
  Species in which the metabolite of Compound 3 was observed: H, M

## Nc1ccc(-c2cnc3c(-c4ccnc5ccccc45)cnn3c2)cc1 [Compound M337]
[2]
  Species in which the metabolite of LDN-193189 was observed: M, Rb, D, Mo, H
  metabolite found in rat microsomal incubation with LDN-193189: not found

## CN1CCC[C@H]1c1cccnc1 [Nicotine, reference compound]
[2]; liver microsomes, KCN 0.1 mM
  cyanide adducts in KCN trapping: produced the expected cyanide derivatives

## O=C1CN(c2ccc(-c3cnc4c(-c5ccnc6ccccc56)cnn4c3)cc2)CCN1 [Compound M420]
[2]
  Species in which the metabolite of LDN-193189 was observed: M, R, Rb, D, Mo, H

## N#CC1CNCCN1c1ccc(-c2cnc3c(-c4ccnc5ccccc45)cnn3c2)cc1 (stereo not shown) [Compound M431]
[2]
  Species in which the metabolite of LDN-193189 was observed: M, R, Rb, D, Mo, H

## N#CC1CNC(=O)CN1c1ccc(-c2cnc3c(-c4ccnc5ccccc45)cnn3c2)cc1 (stereo not shown) [Compound M445]
[2]
  Species in which the metabolite of LDN-193189 was observed: M, R, Rb, D, Mo, H

## OCCNc1ccc(-c2cnc3c(-c4ccnc5ccccc45)cnn3c2)cc1 [Compound M381]
[2]
  Species in which the metabolite of LDN-193189 was observed: Rb, D, Mo, H

## NCCNc1ccc(-c2cnc3c(-c4ccnc5ccccc45)cnn3c2)cc1 [Compound M380]
[2]
  metabolite found in rat microsomal incubation with LDN-193189: not found

## O=C(O)CNc1ccc(-c2cnc3c(-c4ccnc5ccccc45)cnn3c2)cc1 [Compound M395]
[2]
  Species in which the metabolite of LDN-193189 was observed: Rb, D, Mo, H

## NCCN(CC(=O)O)c1ccc(-c2cnc3c(-c4ccnc5ccccc45)cnn3c2)cc1 [Compound M438]
[2]
  Species in which the metabolite of LDN-193189 was observed: M, R, Rb, D, Mo, H

## Oc1cc(-c2cnn3cc(-c4ccc(N5CCNCC5)cc4)cnc23)c2ccccc2n1 [Compound M422c]
[2]
  Species in which the metabolite of LDN-193189 was observed: all species except dog

## Cc1cc(-c2cnn3cc(-c4ccc(OCCO)nc4)cnc23)c2ccccc2n1 [Compound M397]
[1]
  Species in which the metabolite of Compound 2 was observed: H, M
  Species in which the metabolite of Compound 3 was observed: H, M

## Cc1cc(-c2cnn3cc(-c4ccc(OCCN5CCCCC5)nc4)cnc23)c2ccccc2n1 [Compound 3]
ALK2
  IC50: 466 nM
ALK2; relative to LDN-193189
  potency against ALK2 mediated signaling compared to LDN-193189: threefold less potent
ALK3
  IC50: 4340 nM
ALK5; [8]
  IC50: 2660 nM
[3]
  half-life at 1 μM: > 30 min
[4]
  Papp: 1070 ×10⁻⁶ cm/s
[5]
  solubility at 6 h: 36.2 µg/mL (≈ 77.9 µM)
[1]
  aniline formation: Neither aniline formation nor cytosolic metabolism were observed
  cyanide (KCN) adduct: No cyanide adduct or glucuronide conjugate was observed
  metabolism in cytosol incubation (AO-mediated): No metabolite formation was observed
  GSH adduct: observed only in mouse microsomal incubation
[1]; UDPGA
  glucuronide conjugate: No cyanide adduct or glucuronide conjugate was observed

## C[C@]12CC[C@H]3[C@@H](CCC4=CC(=O)CC[C@@]43C)[C@@H]1CC[C@@H]2O [testosterone, reference compound]
[6]; human liver microsomes, 100 μM, 20 min
  metabolite formation of positive control: showed the expected metabolite formation

## c1ccc2c(-c3cnn4cc(-c5ccc(OCCN6CCCCC6)nc5)cnc34)ccnc2c1 [Compound 2]
ALK2
  IC50: 227 nM
ALK3
  IC50: 3270 nM
ALK5; [8]
  IC50: 27400 nM
[3]
  half-life at 1 μM: 22 min
[4]
  Papp: 7 ×10⁻⁶ cm/s
[5]
  solubility at 6 h: < 1 µg/mL
[1]
  aniline formation: not detected
  cyanide (KCN) adduct: not detected
  metabolism in cytosol incubation (AO-mediated): An oxidative metabolite was observed
  GSH adduct: observed only in mouse microsomal incubation

## Cc1cc(-c2cnn3cc(-c4ccc(N5CCNCC5)cc4)cnc23)c2ccccc2n1 [Compound 1]
ALK2
  IC50: 120 nM
ALK5
  IC50: 987 nM
[3]
  half-life at 1 μM: > 30 min
[4]
  Papp: 437 ×10⁻⁶ cm/s
[5]
  solubility at 6 h: 1 µg/mL (≈ 2.38 µM)
[6]; UDPGA-fortified human liver microsomes
  glucuronide conjugate: No glucuronide conjugate was observed
[6]; human liver cytosol
  metabolism in cytosol incubation (AO-mediated): No metabolism was observed
[6]; human liver microsomes
  extent of metabolism in human liver microsomes: metabolized moderately
[6]; human liver microsomes, GSH
  GSH adduct in trapping experiments: no GSH or cyanide adduct was detected
[6]; human liver microsomes, KCN
  cyanide adduct in trapping experiments: no GSH or cyanide adduct was detected
[6]; human microsomal fractions
  aniline derivatives: No aniline derivatives were observed

## O=c1cc(-c2cnn3cc(-c4ccc(OCCN5CCCCC5)nc4)cnc23)c2ccccc2[nH]1 [Compound M466d]
[1]
  Species in which the metabolite of Compound 2 was observed: H, M

## c1ccc2c(-c3cnn4cc(-c5ccc(N6CCNCC6)cc5)cnc34)ccnc2c1 [LDN-193189, reference compound]
ALK3
  IC50: 585 nM
[3]
  half-life at 1 μM: > 30 min
[4]
  Papp: 320 ×10⁻⁶ cm/s
[5]
  solubility at 6 h: 1.1 µg/mL (≈ 2.71 µM)
[7]
  plasma t1/2: 96 min
Mouse FOP disease model
  efficacy in an animal model of FOP: efficacious
[6]; human liver cytosol, allopurinol 0.1 mM
  formation of M422c on addition of XO inhibitor allopurinol: did not result in a change
[6]; human liver cytosol, menadione 1 mM
  formation of M422c in the presence of AO inhibitor menadione: reduced
[2]; UDPGA 2 mM
  glucuronide conjugates: no glucuronide conjugates observed
[2]; liver microsomes from any species, GSH 2 mM
  GSH trapping of reactive metabolites: no “soft electrophiles” were produced
[2]; liver microsomes, no cytosol added
  rank ordering of the metabolic conversion in liver microsomes: dog > rabbit > mouse > human ∼ monkey > rat
[2]; liver preparations with cytosol
  extent of metabolic conversion to M422c, order of species: monkey > rabbit > human > mouse > rat with no conversion observed in dog liver preparations
